According to patent US20090298073A1, “Kidney Toxicity Biomarkers” (priority 2006, published 2009):

Assays:
Format in all cases: in vivo, rat
male rats [1] = assay: ELISA of urinary NGAL in rats treated with kidney toxicants; settings: urine
Protocol: (§1) The biomarkers of the present invention can be measured in blood or urine during testing of a novel therapeutic compound. […] ELISA antibody assays are used to evaluate changes in protein levels.
(§2) Antibodies were purchased or made and ELISA assays were performed to measure the levels of four Kidney Toxicity Biomarker proteins in urine. The proteins are TFF3; Tarnm Horsfall protein (THP); neutrophil gelatinase-associated lipocalin (NGAL) and albumin.

male rats [2] = assay: ELISA of urinary albumin in rats treated with kidney toxicants; settings: urine
Protocol: as §1, §2

male rats [3] = assay: ELISA of urinary TFF3 in rats treated with kidney toxicants; settings: urine
Protocol: as §1, §2

male rats [4] = assay: ELISA of urinary Tamm Horsfall protein (THP) in rats treated with kidney toxicants; settings: urine
Protocol: as §1, §2

male rats [5] = assay: Histopathologically-assessed kidney toxicity in rats
[6] = gentamicin 20 mg/Kg/Day, Day 15
[7] = gentamicin 80 mg/Kg/Day, Day 15
[8] = gentamicin 240 mg/Kg/Day, Day 3
[9] = gentamicin 240 mg/Kg/Day, Day 9
[10] = gentamicin 240 mg/Kg/Day, Day 12

Substance: Gentamicin
- NGAL (male rats [1]; gentamicin 20 mg/Kg/Day, Day 3): 14 µg/mL
- NGAL (male rats [1]; gentamicin 20 mg/Kg/Day, Day 9): 15 µg/mL
- NGAL (male rats [1]; [6]): 15 µg/mL
- NGAL (male rats [1]; gentamicin 80 mg/Kg/Day, Day 3): 13 µg/mL
- NGAL (male rats [1]; gentamicin 80 mg/Kg/Day, Day 9): 14 µg/mL
- NGAL (male rats [1]; [7]): 20 µg/mL
- NGAL (male rats [1]; [8]): 17 µg/mL
- NGAL (male rats [1]; [9]): 13 µg/mL
- NGAL (male rats [1]; [10]): 25 µg/mL
- Albumin (male rats [2]; gentamicin 20 mg/Kg/Day, Day 3): 14 µg/mL
- Albumin (male rats [2]; gentamicin 20 mg/Kg/Day, Day 9): 7 µg/mL
- Albumin (male rats [2]; [6]): 13 µg/mL
- Albumin (male rats [2]; gentamicin 80 mg/Kg/Day, Day 3): 221 µg/mL
- Albumin (male rats [2]; gentamicin 80 mg/Kg/Day, Day 9): 190 µg/mL
- Albumin (male rats [2]; [7]): 22 µg/mL
- Albumin (male rats [2]; [8]): 129 µg/mL
- Albumin (male rats [2]; [9]): 534 µg/mL
- Albumin (male rats [2]; [10]): 502 µg/mL
- TFF3 (male rats [3]; gentamicin 20 mg/Kg/Day, Day 3): 634 ng/mL
- TFF3 (male rats [3]; gentamicin 20 mg/Kg/Day, Day 9): 202 ng/mL
- TFF3 (male rats [3]; [6]): 265 ng/mL
- TFF3 (male rats [3]; gentamicin 80 mg/Kg/Day, Day 3): 280 ng/mL
- TFF3 (male rats [3]; gentamicin 80 mg/Kg/Day, Day 9): 121 ng/mL
- TFF3 (male rats [3]; [7]): 69 ng/mL
- TFF3 (male rats [3]; [8]): 132 ng/mL
- TFF3 (male rats [3]; [9]): 1.3 ng/mL
- TFF3 (male rats [3]; [10]): 29 ng/mL
- THP (male rats [4]; gentamicin 20 mg/Kg/Day, Day 3): 4.1 µg/mL
- THP (male rats [4]; gentamicin 20 mg/Kg/Day, Day 9): 4.5 µg/mL
- THP (male rats [4]; [6]): 4.4 µg/mL
- THP (male rats [4]; gentamicin 80 mg/Kg/Day, Day 3): 3.4 µg/mL
- THP (male rats [4]; gentamicin 80 mg/Kg/Day, Day 9): 3.1 µg/mL
- THP (male rats [4]; [7]): 3.9 µg/mL
- THP (male rats [4]; [8]): 3.2 µg/mL
- THP (male rats [4]; [9]): 1.3 µg/mL
- THP (male rats [4]; [10]): 1.9 µg/mL
- Histopathology Score (male rats [5]; [6]): <1
- Histopathology Score (male rats [5]; gentamicin 80 mg/Kg/Day, Day 3): <1
- Histopathology Score (male rats [5]; [7]): 2
- Histopathology Score (male rats [5]; [8]): <1
- Histopathology Score (male rats [5]; [9]): 4
- Histopathology Score (male rats [5]; [10]): 5
